pIC50: −log10 of the molar value. A value given as a limit tells only on which side of the number the result lay.

As usually defined, the pIC50 is −log10 of the IC50, conventionally taken in molar units.

One assay deals with Endogenous Huntingtin Protein. The assay is described as follows: Endogenous Huntingtin Protein Assay (ELISA-based MSD electrochemiluminescence). As to conditions: MSD plates coated with MW1 (expanded polyglutamine) or MAB2166 capture antibody; lysates. Format: cell-based. The method in brief: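 Electrochemiluminescence sandwich ELISA for endogenous huntingtin: capture with MW1 (expanded polyglutamine) or MAB2166 antibody at 1 μg/mL, samples incubated overnight at 4° C. Detection with rabbit monoclonal #5656S then goat anti-rabbit SULFO-TAG antibody (each 0.25 μg/mL, 1 h room temperature), read on MSD imager.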
(In an ELISA, binding on a coated surface is turned into a signal by an enzyme label.)
Turning to `Cn1ncc2cc(O)c(-c3cc4c(nn3)N([C@H]3CC(C)(C)NC(C)(C)[C@H]3F)CC4)cc21` [Cpd 62, 6-{7-[(3S,4S)-3-fluoro-2,2,6,6-tetramethylpiperidin-4-yl]-6,7-dihydro-5H-pyrrolo[2,3-c]pyridazin-3-yl}-1-methyl-1H-indazol-5-ol], the pIC50 is over 7.00.

The molecule `CC1(C)C[C@H](N2CCc3cc(-c4cc5ncccc5cc4O)nnc32)[C@H](F)C(C)(C)N1` [Cpd 80, 7-{7-[(3S,4S)-3-fluoro-2,2,6,6-tetramethylpiperidin-4-yl]-6,7-dihydro-5H-pyrrolo[2,3-c]pyridazin-3-yl}quinolin-6-ol] gave a pIC50 of over 7.00.

The molecule `COc1cnc2cc(-c3cc4c(nn3)N([C@H]3CC(C)(C)NC(C)(C)[C@H]3F)CC4)c(O)cc2n1` [Cpd 84, 7-{7-[(3S,4S)-3-fluoro-2,2,6,6-tetramethylpiperidin-4-yl]-6,7-dihydro-5H-pyrrolo[2,3-c]pyridazin-3-yl}-3-methoxyquinoxalin-6-ol] gave a pIC50 of over 7.00.

Still in this assay, the particulars now being: MSD plates coated with MW1 (expanded polyglutamine) or MAB2166 capture antibody; lysates; read-out: IC50.
Take `Cc1nc2cc(O)c(-c3cc4c(nn3)N([C@H]3CC(C)(C)NC(C)(C)[C@H]3F)CC4)cc2s1` [Cpd 52, 6-{7-[(3S,4S)-3-fluoro-2,2,6,6-tetramethylpiperidin-4-yl]-6,7-dihydro-5H-pyrrolo[2,3-c]pyridazin-3-yl}-2-methyl-1,3-benzothiazol-5-ol]: the pIC50 was over 7.00.

With `CC1(C)C[C@H](N2CCc3cc(-c4cc5cccnc5cc4O)nnc32)[C@H](F)C(C)(C)N1` [Cpd 53, 6-{7-[(3S,4S)-3-fluoro-2,2,6,6-tetramethylpiperidin-4-yl]-6,7-dihydro-5H-pyrrolo[2,3-c]pyridazin-3-yl}quinolin-7-ol], the pIC50 is over 7.00.

As for `CC1(C)C[C@H](N2CCc3cc(-c4cc5cnccc5cc4O)nnc32)[C@H](F)C(C)(C)N1` [Cpd 54, 7-{7-[(3S,4S)-3-fluoro-2,2,6,6-tetramethylpiperidin-4-yl]-6,7-dihydro-5H-pyrrolo[2,3-c]pyridazin-3-yl}isoquinolin-6-ol], the negative logarithm of the IC50 (pIC50) was over 7.00.

On to `Cc1cnc2cc(O)c(-c3cc4c(nn3)N([C@H]3CC(C)(C)NC(C)(C)[C@H]3F)CC4)cc2n1` [Cpd 55, 7-{7-[(3S,4S)-3-fluoro-2,2,6,6-tetramethylpiperidin-4-yl]-6,7-dihydro-5H-pyrrolo[2,3-c]pyridazin-3-yl}-2-methylquinoxalin-6-ol], for which the pIC50 was over 7.00.

For the molecule `Cc1cnc2cc(-c3cc4c(nn3)N([C@H]3CC(C)(C)NC(C)(C)[C@H]3F)CC4)c(O)cc2n1` [Cpd 56, 7-{7-[(3S,4S)-3-fluoro-2,2,6,6-tetramethylpiperidin-4-yl]-6,7-dihydro-5H-pyrrolo[2,3-c]pyridazin-3-yl}-3-methylquinoxalin-6-ol], the pIC50 was over 7.00.

Turning to `O=C1CCc2cc(-c3cc4c(nn3)N([C@H]3CCNC5(CC5)C3)CC4)c(O)cc21` [Cpd 57, 5-{7-[(7S)-4-azaspiro[2.5]octan-7-yl]-6,7-dihydro-5H-pyrrolo[2,3-c]pyridazin-3-yl}-6-hydroxy-2,3-dihydro-1H-inden-1-one], the pIC50 was 6.30 to 7.00.

In the case of `O=c1ccc2cc(-c3cc4c(nn3)N([C@H]3CCNC5(CC5)C3)CC4)c(O)cc2o1` [Cpd 59, 6-{7-[(7S)-4-azaspiro[2.5]octan-7-yl]-6,7-dihydro-5H-pyrrolo[2,3-c]pyridazin-3-yl}-7-hydroxy-2H-1-benzopyran-2-one], the pIC50 was over 7.00.

For the molecule `CO/N=C1/CCc2cc(-c3cc4c(nn3)N([C@H]3CCNC5(CC5)C3)CC4)c(O)cc21` [Cpd 60, (3Z)-6-{7-[(7S)-4-azaspiro[2.5]octan-7-yl]-6,7-dihydro-5H-pyrrolo[2,3-c]pyridazin-3-yl}-3-(methoxyimino)-2,3-dihydro-1H-inden-5-ol], the pIC50 is 6.00 to 6.30.

Regarding `Cc1cc(=O)oc2cc(O)c(-c3cc4c(nn3)N([C@H]3CC(C)(C)NC(C)(C)[C@H]3F)CC4)cc12` [Cpd 65, 6-{7-[(3S,4S)-3-fluoro-2,2,6,6-tetramethylpiperidin-4-yl]-6,7-dihydro-5H-pyrrolo[2,3-c]pyridazin-3-yl}-7-hydroxy-4-methyl-2H-1-benzopyran-2-one], the pIC50 is over 7.00.

On to `Cc1cc(=O)oc2cc(O)c(-c3cc4c(nn3)N([C@H]3CCNC5(CC5)C3)CC4)cc12` [Cpd 66, 6-{7-[(7S)-4-azaspiro[2.5]octan-7-yl]-6,7-dihydro-5H-pyrrolo[2,3-c]pyridazin-3-yl}-7-hydroxy-4-methyl-2H-1-benzopyran-2-one], for which the pIC50 was over 7.00.

Consider `CC1(C)C[C@H](N2CCc3cc(-c4cc5ccc(=O)oc5cc4O)nnc32)[C@H](F)C(C)(C)N1` [Cpd 67, 6-{7-[(3S,4S)-3-fluoro-2,2,6,6-tetramethylpiperidin-4-yl]-6,7-dihydro-5H-pyrrolo[2,3-c]pyridazin-3-yl}-7-hydroxy-2H-1-benzopyran-2-one], for which the negative-log IC50 (pIC50) was over 7.00.

Turning to `Cc1cc(=O)c2cc(-c3cc4c(nn3)N([C@H]3CC(C)(C)NC(C)(C)[C@H]3F)CC4)c(O)cc2o1` [Cpd 68, 6-{7-[(3S,4S)-3-fluoro-2,2,6,6-tetramethylpiperidin-4-yl]-6,7-dihydro-5H-pyrrolo[2,3-c]pyridazin-3-yl}-7-hydroxy-2-methyl-4H-1-benzopyran-4-one], the pIC50 was over 7.00.

Consider `CC1(C)C[C@H](N2CCc3cc(-c4cc5c(=O)ccoc5cc4O)nnc32)[C@H](F)C(C)(C)N1` [Cpd 69, 6-{7-[(3S,4S)-3-fluoro-2,2,6,6-tetramethylpiperidin-4-yl]-6,7-dihydro-5H-pyrrolo[2,3-c]pyridazin-3-yl}-7-hydroxy-4H-1-benzopyran-4-one], for which the pIC50 is over 7.00.

On to `CC1(C)C[C@H](N2CCc3cc(-c4cc5ccncc5cc4O)nnc32)[C@H](F)C(C)(C)N1` [Cpd 70, 6-{7-[(3S,4S)-3-fluoro-2,2,6,6-tetramethylpiperidin-4-yl]-6,7-dihydro-5H-pyrrolo[2,3-c]pyridazin-3-yl}isoquinolin-7-ol], for which the pIC50 is over 7.00.

`Cc1nc2cc(O)c(-c3cc4c(nn3)N(C3CC5(CC5)NC5(CC5)C3)CC4)cc2s1` (centres unmarked) [Cpd 71, 6-[7-(4-azadispiro[2.1.25.33]decan-9-yl)-6,7-dihydro-5H-pyrrolo[2,3-c]pyridazin-3-yl]-2-methyl-1,3-benzothiazol-5-ol]: the pIC50 was over 7.00.

In the case of `Cc1nc2cc(O)c(-c3cc4c(nn3)N(C3CC5(CC5)NC5(CC5)C3)CC4)cc2o1` (centres unmarked) [Cpd 72, 6-[7-(4-azadispiro[2.1.25.33]decan-9-yl)-6,7-dihydro-5H-pyrrolo[2,3-c]pyridazin-3-yl]-2-methyl-1,3-benzoxazol-5-ol], the pIC50 is over 7.00.

With `Cc1cc2cc(-c3cc4c(nn3)N([C@H]3CC(C)(C)NC(C)(C)[C@H]3F)CC4)c(O)cc2oc1=O` [Cpd 73, 6-{7-[(3S,4S)-3-fluoro-2,2,6,6-tetramethylpiperidin-4-yl]-6,7-dihydro-5H-pyrrolo[2,3-c]pyridazin-3-yl}-7-hydroxy-3-methyl-2H-1-benzopyran-2-one], the pIC50 was over 7.00.

Take `Cc1cnc2cc(-c3cc4c(nn3)N([C@H]3CC(C)(C)NC(C)(C)[C@H]3F)CC4)c(O)cc2c1` [Cpd 75, 7-{7-[(3S,4S)-3-fluoro-2,2,6,6-tetramethylpiperidin-4-yl]-6,7-dihydro-5H-pyrrolo[2,3-c]pyridazin-3-yl}-3-methylquinolin-6-ol]: the pIC50 was over 7.00.

Regarding `Cc1ccc2cc(-c3cc4c(nn3)N([C@H]3CC(C)(C)NC(C)(C)[C@H]3F)CC4)c(O)cc2n1` [Cpd 76, 6-{7-[(3S,4S)-3-fluoro-2,2,6,6-tetramethylpiperidin-4-yl]-6,7-dihydro-5H-pyrrolo[2,3-c]pyridazin-3-yl}-2-methylquinolin-7-ol], the pIC50 is over 7.00.

Turning to `Cc1ccc2cc(O)c(-c3cc4c(nn3)N([C@H]3CC(C)(C)NC(C)(C)[C@H]3F)CC4)cc2n1` [Cpd 77, 7-{7-[(3S,4S)-3-fluoro-2,2,6,6-tetramethylpiperidin-4-yl]-6,7-dihydro-5H-pyrrolo[2,3-c]pyridazin-3-yl}-2-methylquinolin-6-ol], the pIC50 was over 7.00.

Turning to `COc1cc(=O)oc2cc(O)c(-c3cc4c(nn3)N([C@H]3CC(C)(C)NC(C)(C)[C@H]3F)CC4)cc12` [Cpd 78, 6-{7-[(3S,4S)-3-fluoro-2,2,6,6-tetramethylpiperidin-4-yl]-6,7-dihydro-5H-pyrrolo[2,3-c]pyridazin-3-yl}-7-hydroxy-4-methoxy-2H-1-benzopyran-2-one], the pIC50 was over 7.00.

Regarding `Cc1cnc2cc(O)c(-c3cc4c(nn3)N([C@H]3CC(C)(C)NC(C)(C)[C@H]3F)CC4)cc2c1` [Cpd 81, 6-{7-[(3S,4S)-3-fluoro-2,2,6,6-tetramethylpiperidin-4-yl]-6,7-dihydro-5H-pyrrolo[2,3-c]pyridazin-3-yl}-3-methylquinolin-7-ol], the pIC50 is over 7.00.

In the case of `CC1(C)C[C@H](N2CCc3cc(-c4cc5occc(=O)c5cc4O)nnc32)[C@H](F)C(C)(C)N1` [Cpd 82, 7-{7-[(3S,4S)-3-fluoro-2,2,6,6-tetramethylpiperidin-4-yl]-6,7-dihydro-5H-pyrrolo[2,3-c]pyridazin-3-yl}-6-hydroxy-4H-1-benzopyran-4-one], the pIC50 is over 7.00.

In the case of `Cc1cc(=O)c2cc(O)c(-c3cc4c(nn3)N([C@H]3CC(C)(C)NC(C)(C)[C@H]3F)CC4)cc2o1` [Cpd 83, 7-{7-[(3S,4S)-3-fluoro-2,2,6,6-tetramethylpiperidin-4-yl]-6,7-dihydro-5H-pyrrolo[2,3-c]pyridazin-3-yl}-6-hydroxy-2-methyl-4H-1-benzopyran-4-one], the pIC50 was over 7.00.

For the molecule `CC1(C)C[C@H](N2CCc3cc(-c4cc5nsnc5cc4O)nnc32)[C@H](F)C(C)(C)N1` [Cpd 85, 6-{7-[(3S,4S)-3-fluoro-2,2,6,6-tetramethylpiperidin-4-yl]-6,7-dihydro-5H-pyrrolo[2,3-c]pyridazin-3-yl}-2,1,3-benzothiadiazol-5-ol], the pIC50 is over 7.00.

For the molecule `CC1(C)C[C@H](N2CCc3cc(-c4cc5oc(=O)[nH]c5cc4O)nnc32)[C@H](F)C(C)(C)N1` [Cpd 86, 6-{7-[(3S,4S)-3-fluoro-2,2,6,6-tetramethylpiperidin-4-yl]-6,7-dihydro-5H-pyrrolo[2,3-c]pyridazin-3-yl}-5-hydroxy-1,3-benzoxazol-2(3H)-one], the pIC50 was over 7.00.

For the origin of these results see patent publication US20250353855A1, “HETEROCYCLIC AND HETEROARYL COMPOUNDS FOR TREATING HUNTINGTON'S DISEASE” (PTC THERAPEUTICS, INC., priority 2022, published 2025).
